Earlier results on one substance are cited in PMC4855509 (Photochemistry and photobiology, 2014).

On to carboxy-tetramethylrhodamine [TMR], for which the “triplet state quantum yield” value is given as 0.001–0.003.
